According to US10975077B2 (Novira Therapeutics, Inc., priority 2016, dated 2021):

Each compound was assayed on HBV (encapsidated HBV DNA, HepG2.2.15 cells) (assay: HBV replication inhibition assay, BDNA assay in HepG2.2.15 cells). Details: Activity in BDNA-assay.
Type: cell-based
Experimental: HBV replication inhibition by the disclosed compounds were determined in cells infected or transfected with HBV, or cells with stably integrated HBV, such as HepG2.2.15 cells (Sells et al. 1987). In this example, HepG2.2.15 cells were maintained in cell culture medium containing 10% fetal bovine serum (FBS), Geneticin, L-glutamine, penicillin and streptomycin. HepG2.2.15 cells were seeded in 96-well plates at a density of 40,000 cells/well and were treated with serially diluted compounds at a final DMSO concentration of 0.5% either alone or in combination by adding drugs in a checker box format. Cells were incubated with compounds for three days, after which medium was removed and fresh medium containing compounds was added to cells and incubated for another three days. At day 6, supernatant was removed and treated with DNase at 37° C. for 60 minutes, followed by enzyme inactivation at 75° C. for 15 minutes. Encapsidated HBV DNA was released from the virions and covalently linked HBV polymerase by incubating in lysis buffer (Affymetrix QS0010) containing 2.5 μg proteinase K at 50° C. for 40 minutes. HBV DNA was denatured by addition of 0.2 M NaOH and detected using a branched DNA (BDNA) QuantiGene assay kit according to manufacturer recommendation (Affymetrix). HBV DNA levels were also quantified using qPCR, based on amplification of encapsidated HBV DNA extraction with QuickExtraction Solution (Epicentre Biotechnologies) and amplification of HBV DNA using HBV specific PCR probes that can hybridize to HBV DNA and a fluorescently labeled probe for quantitation. In addition, cell viability of HepG2.2.15 cells incubated with test compounds alone or in combination was determined by using CellTitre-Glo reagent according to the manufacturer protocol (Promega). The mean background signal from wells containing only culture medium was subtracted from all other samples, and percent inhibition at each compound concentration was calculated by normalizing to signals from HepG2.2.15 cells treated with 0.5% DMSO using equation E1. % inhibition=(DMSOave−Xi)/DMSOave×100% E1: where DMSOave is the mean signal calculated from the wells that were treated with DMSO control (0% inhibition control) and Xi is the signal measured from the individual wells. EC50 values, effective concentrations that achieved 50% inhibitory effect, were determined by non-linear fitting using Graphpad Prism software (San Diego, Calif.) and equation E2: Y=Y min+(Y max −Y min)/(1+10(Log EC50−X)×HillSlope) E2: […]
where Y represents percent inhibition values and X represents the logarithm of compound concentrations.
Selected disclosed compounds were assayed in the HBV replication assay (BDNA assay), as described above and a representative group of these active compounds is shown in Table 6.
Work on C[C@@H]1Cc2nn3c(c2CN1C(=O)Nc1ccc(F)c(C#N)c1)C(=O)N(C)CC(CO)C3 (single isomer, unassigned) [Compound 087_D2, (3R,8R*)—N-(3-cyano-4-fluorophenyl)-8-(hydroxymethyl)-3,10-dimethyl-11-oxo-1,3,4,7,8,9,10,11-octahydro-2H-pyrido[4′,3′:3,4]pyrazolo[1,5-a][1,4]diazepine-2-carboxamide] yielded an EC50 of 1 to 100 nM.
Compound C[C@@H]1Cc2nn3c(c2CN1C(=O)Nc1ccc(F)c(C#N)c1F)C(=O)N(C)CC(CO)C3 (single isomer, unassigned) [Compound 088_D2, (3R,8R*)—N-(3-cyano-2,4-difluorophenyl)-8-(hydroxymethyl)-3,10-dimethyl-11-oxo-1,3,4,7,8,9,10,11-octahydro-2H-pyrido[4′,3′:3,4]pyrazolo[1,5-a][1,4]diazepine-2-carboxamide] has an EC50 of 1 to 100 nM.
For C[C@@H]1Cc2nn3c(c2CN1C(=O)Nc1ccc(F)c(Cl)c1F)C(=O)N(C)CC(CO)C3 (single isomer, unassigned) [Compound 089_D2, (3R,8R*)—N-(3-chloro-2,4-difluorophenyl)-8-(hydroxymethyl)-3,10-dimethyl-11-oxo-1,3,4,7,8,9,10,11-octahydro-2H-pyrido[4′,3′:3,4]pyrazolo[1,5-a][1,4]diazepine-2-carboxamide], the EC50 was 1 to 100 nM.
C[C@@H]1Cc2nn3c(c2CN1C(=O)Nc1cc(Cl)c(F)cc1F)C(=O)N(C)CC(CO)C3 (single isomer, unassigned) [Compound 090_D2, (3R,8R*)—N-(5-chloro-2,4-difluorophenyl)-8-(hydroxymethyl)-3,10-dimethyl-11-oxo-1,3,4,7,8,9,10,11-octahydro-2H-pyrido[4′,3′:3,4]pyrazolo[1,5-a][1,4]diazepine-2-carboxamide] gave an EC50 of 1 to 100 nM.

Same assay, conditions: Hepatitis B virus, HepG2.2.15, Activity in BDNA-assay
C[C@@H]1Cc2nn3c(c2CN1C(=O)Nc1ccc(F)c(C#N)c1)C(=O)N(C)CC(CO)C3 (single isomer, unassigned) [Compound 087_D1, (3R,8S*)—N-(3-cyano-4-fluorophenyl)-8-(hydroxymethyl)-3,10-dimethyl-11-oxo-1,3,4,7,8,9,10,11-octahydro-2H-pyrido[4′,3′:3,4]pyrazolo[1,5-a][1,4]diazepine-2-carboxamide] gave an EC50 of 1 to 100 nM.
With C[C@@H]1Cc2nn3c(c2CN1C(=O)Nc1ccc(F)c(C#N)c1F)C(=O)N(C)CC(CO)C3 (single isomer, unassigned) [Compound 088_D1, (3R,8S*)—N-(3-cyano-2,4-difluorophenyl)-8-(hydroxymethyl)-3,10-dimethyl-11-oxo-1,3,4,7,8,9,10,11-octahydro-2H-pyrido[4′,3′:3,4]pyrazolo[1,5-a][1,4]diazepine-2-carboxamide] the EC50 was 1 to 100 nM.
In the case of C[C@@H]1Cc2nn3c(c2CN1C(=O)Nc1ccc(F)c(Cl)c1F)C(=O)N(C)CC(CO)C3 (single isomer, unassigned) [Compound 089_D1, (3R,8S*)—N-(3-chloro-2,4-difluorophenyl)-8-(hydroxymethyl)-3,10-dimethyl-11-oxo-1,3,4,7,8,9,10,11-octahydro-2H-pyrido[4′,3′:3,4]pyrazolo[1,5-a][1,4]diazepine-2-carboxamide], the EC50 is reported as 1 to 100 nM.
For C[C@@H]1Cc2nn3c(c2CN1C(=O)Nc1cc(Cl)c(F)cc1F)C(=O)N(C)CC(CO)C3 (single isomer, unassigned) [Compound 090_D1, (3R,8S*)—N-(5-chloro-2,4-difluorophenyl)-8-(hydroxymethyl)-3,10-dimethyl-11-oxo-1,3,4,7,8,9,10,11-octahydro-2H-pyrido[4′,3′:3,4]pyrazolo[1,5-a][1,4]diazepine-2-carboxamide], the EC50 was 1 to 100 nM.
Work on C[C@@H]1Cc2nn3c(c2CN1C(=O)Nc1ccc(F)c(Cl)c1)C(=O)N(CC(F)F)CC(CO)C3 (single isomer, unassigned) [Compound 092_D1, (3R,8R*)—N-(3-chloro-4-fluorophenyl)-10-(2,2-difluoroethyl)-8-(hydroxymethyl)-3-methyl-11-oxo-1,3,4,7,8,9,10,11-octahydro-2H-pyrido[4′,3′:3,4]pyrazolo[1,5-a][1,4]diazepine-2-carboxamide] yielded an EC50 of 1 to 100 nM.
